We go through one compound from US20120172344A1, “INSULIN-PRODUCING CELL INDUCER, GLUCOSE INTAKE ENHANCER, AND THERAPEUTIC AGENT FOR DIABETES OR DIABETES COMPLICATIONS” (KYUSHU UNIVERSITY, NATIONAL UNIVERSITY CORPORATION, priority 2009, published 2012).

What all share (type): in vivo, mouse
Assay [1] concerns muscles (soleus muscle) of Tg23 mice. Description: Experimental Example 3: glucose (2-deoxy-D-glucose) intake of soleus muscles. To be noted: Tg mice, Tx-E group vs Ct group, 20-40 weeks after the administration.
Method: Mice were sacrificed, and extensor digitorum longus (EDL) muscles and soleus muscles were quickly removed and processed. Both ends of each of the muscles were tied with suture (silk 4-0), and mounted on an incubation apparatus. First, the muscles were preincubated for 20 minutes in 6 ml of Krebs-Ringer bicarbonate (KRB) buffer (117 mM NaCl, 4.7 mM KCl, 2.5 mM CaCl2, 1.2 mM KH2PO4, 1.2 mM MgSO4, 24.6 mM NaHCO3, pH 7.5) containing 2 mM pyruvate. Then, the muscles were incubated in KRB buffer in presence or absence of insulin.
Immediately after muscle incubation, the muscles were transferred to KRB buffer containing 1 mM 2-deoxy-D-[^3H]glucose (1.5 μCi/ml) and 7 mM D-[^14C]mannitol (0.3 μCi/ml) (PerkinElmer Life Sciences) at 30° C., and incubated again for 10 minutes. When using insulin, a buffer containing insulin was used for incubation in a similar manner.
Glucose transport was terminated by dipping the muscles in KRB buffer containing 80 μmol/L cytochalasin B at 4° C., and then the muscles were frozen in liquid nitrogen. The muscles were weighed, and digested by incubating in 250 μl of 1 M NaOH at 80° C. for 10 minutes. Digests were neutralized with 250 μl of 1 M HCl. […] Radioactivity in aliquots of the digested muscle was determined by liquid scintillation counting for dual labels, and extracellular and intracellular spaces were calculated. […]
Assay [2] deals with AKT and Glut4. In words: Experimental Example 3: intramuscular expression of AKT and Glut4 (western blot, immunostaining). The text has this: Primary antibodies: Anti-insulin antibody (dilution rate 1:500; DAKO), anti-glucagon antibody (dilution rate 1:500; Linco Research Inc.), anti-DBA antibody (dilution rate 1:300; Vector Laboratories), anti-Pdx-1 antibody (dilution rate 1:1000; kindly provided by Chris V. E. Wright, Vanderbilt University), anti-collagen type IV antibody (dilution rate 1:250; PROGEN Biotechnik), and anti-Glut 4 antibody (dilution rate 1:1000; Chemicon).
The primary antibodies were detected by immunofluorescence labeling using secondary antibodies conjugated with Alexa 488 or Alexa 568 (1:200; Molecular Probes); third antibody conjugated with biotin-labeled secondary antibodies and streptavidin Alexa 488 or Alexa 568 (1:800; Vector Laboratories); or by an immunoperoxidase staining method using biotin-labeled secondary antibodies. Staining was visualized with diaminobenzidine. The sections were counterstained with hematoxylin. Images were captured on a BZ9000 microscope (Keyence), or in the confocal mode on an LSM 510 META confocal microscope (Carl Zeiss). Immunofluorescence intensity was measured in random fields (n=30/section) using LSM Zeiss software, and the result was expressed as average pixel intensity.
Mice were sacrificed, and the EDL, tibialis anterior, and gastrocnemius muscles were removed and snap-frozen in liquid nitrogen. […]
Protein levels were quantified using NIH Image. […]

The test system of assay [3] is Tg23 mice (diabetic nephropathy). Description: Experimental Example 2: effect of estradiol on second to third stage of diabetic nephropathy. As for the experimental part: (a) Albumin concentration: Albuwellkit (Exocell),
(b) Creatinine: High-performance liquid chromatography (HPLC), and
(c) Creatinine clearance (Ccr): calculated by the next formula.
Ccr=urine creatinine (mg/dL)×urine volume (μL/min)/serum creatinine (mg/dL)/body weight (g). [Math. 1]
50 glomeruli were analyzed for each of the mice. The total area of the glomeruli was measured in PAS-stained sections using Image-Pro Plus (Media Cybernetics). The PAS-positive area fraction was calculated as the ratio of PAS-positive area to glomerular sectional surface area. Glomerular number was measured by counting all of the glomeruli per mid-transverse section of left kidney for each of the mice.
For Tg23 mice, at 20-35 weeks of age, which is when reduction in renal functions and renal lesions are observed, a single pellet of 17β-estradiol was subcutaneously administered, and the effect of estradiol was investigated. […]
PAS staining, and immunostaining using the anti-collagen type IV antibody were performed on glomerular tissues from each of the mice (48 weeks of age), and the results of the staining are shown respectively in FIG. 2(1) and FIG. 2(2). […] The expression intensity was measured in random fields (n=30/section) of the glomerulus, and the result was expressed as average pixel intensity.

Take `C[C@]12CC[C@@H]3c4ccc(O)cc4CC[C@H]3[C@@H]1CC[C@@H]2O` [estradiol, 17β-estradiol]: the “amount of glucose intake of muscles” value in assay [1] was “significantly increases”. Also, the “glucose transporter (Glut4) in muscle cells” value in assay [2] (Tg mice in Tx-E group) is on record as “increased”. Further, the “expression of intramuscular AKT and Glut4” value in assay [2] (Tg mice, Tx + 17β-estradiol pellet s.c.) is “upregulates”. Also, the “sclerosis of the glomeruli (PAS staining, collagen IV immunostaining)” value in assay [3] (Tg23 mice treated at 24 weeks of age (Tx + single 17β-estradiol pellet s.c.), tissues at 48 weeks of age) was “alleviated to a degree not different from wild-type mice”. The “renal functions and renal tissues (GFR, Ualb/Cr, kidney weight, urinary glucose, urine volume)” value in assay [3] (Tg23 mice, second stage of diabetic nephropathy (early nephropathia stage), Tx + single 17β-estradiol pellet s.c.) was “dramatically improves”.
